Earlier results as cited in patent publication US20190274964A1, “NEW IMPROVED COMPOSITION OF RACECADOTRIL” (JOHNSON & JOHNSON CONSUMER INC., priority 2016, published 2019).

Test system: castor-oil induced diarrhea
Details: rats

Row | SMILES | Inhibition of castor-oil induced diarrhea | Protection against diarrhea as measured by cumulative stool weight and time to onset (intravenous administration, most prominent during first two hours following challenge) | Cumulative stool weight following challenge with castor oil (pre-treatment p.o.) | Time to onset (pre-treatment p.o., dose-response relationship could not be established)
1 | O=C(O)CNC(=O)C(CS)Cc1ccccc1 (centres unmarked) [thiorphan] | inhibit castor-oil induced diarrhea | dose-dependent protection against diarrhea | – | –
2 | CC(=O)SCC(Cc1ccccc1)C(=O)NCC(=O)OCc1ccccc1 (centres unmarked) [Racecadotril, benzyl N-[3-(acetylthio)-2 benzylpropanoyl] glycinate] | inhibit castor-oil induced diarrhea | – | reduction in cumulative stool weight | significantly delayed
